Source: article PMC6154319, “Intestinal Transport Characteristics and Metabolism of C-Glucosyl Dihydrochalcone, Aspalathin” (Molecules : A Journal of Synthetic Chemistry and Natural …, 2017)

Experiments:
[1] = Acute mouse study, metabolite identification in blood and urine by LC-MS/MS; format: in vivo; settings: oral 50 mg/kg aspalathin, urine over 8 h, tentative identification by LC-MS/MS
Description: An acute mouse study was performed under ethical approval from the Ethics Committee for Research on Animals (ECRA) of the South African Medical Research Council (Ref:07/13). Three 8-week old male C57.BKS mice, obtained from the Primate Unit of the South African Medical Research Council (Tygerberg, South Africa), were housed individually in polycarbonate cages with wired lids and kept in a controlled environment of 23–24 °C, 50% humidity, and a 12 h light/dark cycle. Prior to the study, urine was collected from the fasting mice overnight in a metabolic cage. Baseline fasted blood was collected via tail snip into a heparin tube, snap frozen in liquid nitrogen, and stored at −80 °C. Each mouse received a single dose of synthetic aspalathin (50 mg/kg body weight) dissolved in phosphate-buffered saline (PBS) (5 mg/mL) via orogastric gavage. Blood samples were collected and handled as described for fasting at time 0 (pre-gavage), and 1, 2, 4, 6, and 8 h post-gavage. All the samples were collected into the same heparin tube and kept on ice during the experiment. Urine was collected over the 8-h post-gavage monitoring period and the samples were stored at −80 °C until analysis.
(§1) The frozen whole blood samples, as well as the samples incubated with microsomes and controls, were thawed, extracted by protein precipitation using 0.1% formic acid (FA) in acetonitrile, centrifuged and filtered through 0.22 µm polyvinylidene difluoride (PVDF) filters (Merck Millipore, Frankfurter Straße, Darmstadt, Germany). Frozen whole urine samples were thawed and diluted 5 times in 0.1% aqueous FA. Samples were analysed by LC-MS/MS on an Agilent 1200 Rapid Resolution HPLC system (600 bar, Agilent Technologies) coupled to a 4000 QTRAP® (AB Sciex, Framingham, MA, USA) equipped with a Turbo V™ […]. Filtered samples (10 μL), stored on a sample tray maintained at 8 °C, were injected on a Gemini C6-Phenyl column (150 × 2.0 mm, 3 µm particles) (Phenomenex, Santa Clara, CA, USA) at 40 °C. […]

[2] = system: mouse liver microsomes; assay: In vitro incubation of aspalathin in mouse liver microsomes and phosphate buffer; format: in vitro ADME
Description: Synthetic aspalathin (10 µM) was incubated at 37 °C in a solution containing 1 mg/mL microsomes (male Mouse BALB/c, Xenotech, Kansas city, KS, USA), magnesium chloride (5 mM) and nicotinamide adenine dinucleotide phosphate (NADPH) (1 mM) in phosphate buffer (100 mM, pH 7.4), for 1 h while shaking. A control containing all the sample constituents (not incubated), another containing no NADPH, and another containing only the compound in phosphate buffer were also included and handled similarly to the test sample.
as §1

[3] = in vitro; settings: human, Caco-2, Papp (cm/s) a-b × 10^−6
Description: Validation of the Caco-2 transport experiments required consideration of three parameters, i.e., firstly, to determine the cytotoxic concentrations of synthetic aspalathin, secondly, the concentration of aspalathin required to ensure HPLC detection in the basolateral compartment, and finally, to assess whether the transport of aspalathin is concentration dependent.
Cells were cultured at 37 °C and 5% CO2 in 95% humidified air in Eagle’s Minimum Essential Medium (EMEM) containing sodium […] pyruvate, supplemented with 2 mM L-glutamine, 1% non-essential amino acids and 10% heat inactivated FBS. Cell cultures were split when 70%–80% confluent, using trypsin/ethylenediaminetetraacetic acid (EDTA). The culture medium, pre-warmed to 37 °C, was refreshed every 2–3 days. Cells were seeded at 1 × 10^4 cells/cm^2 and a sub-cultivation ratio of 1:3 was routinely used. Cells were seeded with the addition of 1% penicillin/streptomycin mixture (10,000 units/mL potassium penicillin and 10,000 µg/mL streptomycin sulphate) at 4 × 10^4 cells/cm^2 onto 0.4 µm polycarbonate 6-well inserts with an insert area of 4.52 cm^2. Cells were used for transport experiments when TEER values across wells were >300 Ω, typically 21–23 days post confluence. Only passages 50–60 were used to prevent phenotypic drift.
The cell monolayers were equilibrated briefly with transport buffer, pH 6.0 (HBSS with 2-(N-morpholino) ethanesulphonic acid (MES)) on the apical side and pH 7.4 (HBSS with HEPES) on the basolateral side, to remove traces of the culture media. Following this, transport buffers were added for 30 min prior to the addition of treatment (inhibitors were added during this step when required, as well as during the subsequent treatment incubation step). After equilibration, the plates containing transport medium were incubated for 30 min at 37 °C at 5% CO2 in 95% humidified air and the TEER value of the monolayer determined. […] For basolateral-to-apical compartment studies, 2.4 mL of treatment at the same concentrations in HBSS (pH 7.4), was added to the basolateral compartment.
To assess whether aspalathin was co-transported with glucose, its transport (100 µM) at both high (20.5 mM) and low (5.5 mM) glucose concentrations, mimicking the intestinal lumen glucose concentrations pre- and post-meals, was monitored. This was followed by experiments performed in the presence and absence of SGLT1 (100 µM phloridzin), GLUT2 (100 µM phloretin) and efflux, PgP (100 µM verapamil) inhibitors.
Samples (1.2 mL) were withdrawn from the basolateral or the apical compartment to measure the concentration of aspalathin uptake and efflux, respectively at 0, 0.5, 1, 1.5, and 2 h under sink conditions (the sample aliquot replaced with equal volume of relevant transport buffer). Sample aliquots (350 µL) were frozen in liquid nitrogen after the addition of ascorbic acid (35 µL of 10% solution) and stored at −65 °C until HPLC analysis. Results were corrected for dilution and expressed as cumulative transport (% of initial dose) as a function of time. Papp (cm/s) for bi-directional transport studies was calculated as previously described. Transport of other major flavonoids in the matrices, i.e., nothofagin, the 3-deoxy analogue of aspalathin and its flavone derivatives, orientin and isoorientin, were also determined.
Lucifer yellow (final concentration 0.1 mM) was used as a membrane integrity marker and co-incubated with the compounds and extracts.
HPLC-DAD analysis of samples from the apical and basolateral compartments was performed in duplicate on an Agilent 1200 system as previously described. Basolateral and apical samples taken after 2 h with pure aspalathin were also analysed using LC-MS (parameters described in [42]) to determine whether aspalathin metabolites were formed in the Caco-2 model.
All experiments were performed in triplicate and the data expressed as mean ± SD, unless otherwise indicated.

Row | Molecule | metabolite present in mouse urine (relative concentrations) [1] | product identified after incubation of aspalathin in mouse liver microsomes ([2]; aspalathin 10 µM, 1 mg/mL microsomes, NADPH, 37 °C, 1 h) | product identified after incubation of aspalathin in phosphate buffer ([2]; phosphate buffer pH 7.4) | Papp A→B at 2 h [3]
1 | Eriodictyol-C-glucoside [M1] | identified | identified | identified | –
2 | O=c1cc(-c2ccc(O)c(O)c2)oc2cc(O)c([C@@H]3O[C@H](CO)[C@@H](O)[C@H](O)[C@H]3O)c(O)c12 [Isoorientin] | – | – | – | 1.69 ± 0.2 ×10⁻⁶ cm/s
3 | O=c1cc(-c2ccc(O)c(O)c2)oc2c([C@@H]3O[C@H](CO)[C@@H](O)[C@H](O)[C@H]3O)c(O)cc(O)c12 [Orientin] | – | – | – | 1.92 ± 0.2 ×10⁻⁶ cm/s
